Converted amounts (≈) assume the structure as drawn.
How the values were obtained:
[1] = molecular target: recombinant human Estrogen Receptor alpha ligand binding domain (ER alpha-LBD (GST)) (Homo sapiens (Human), UniProt P03372); assay: ERα binding assay (LanthaScreen TR-FRET competition)
Experimental: The ability of compounds to bind to isolated Estrogen Receptor Alpha Ligand binding domain (ER alpha—LBD (GST)) was assessed in competition assays using a LanthaScreen Time-Resolved Fluorescence Resonance Energy Transfer (TR-FRET) detection end-point. For the LanthaScreen TR-FRET endpoint, a suitable fluorophore (Fluormone ES2, ThermoFisher, Product code P2645) and recombinant human Estrogen Receptor alpha ligand binding domain, residues 307-554 (expressed and purified in-house) were used to measure compound binding. The assay principle is that ER alpha-LBD (GST) is added to a fluorescent ligand to form a receptor/fluorophore complex. A terbium-labelled anti-GST antibody (Product code PV3551) is used to indirectly label the receptor by binding to its GST tag, and competitive binding is detected by a test compound's ability to displace the fluorescent ligand, resulting in a loss of TR-FRET signal between the Tb-anti-GST antibody and the tracer. The assay was performed as follows with all reagent additions carried out using the Beckman Coulter BioRAPTR FRD microfluidic workstation: • 1. Acoustic dispense 120 nL of the test compound into a black low volume 384 well assay plates. • 2. Prepare 1× ER alpha-LBD/Tb-antiGST Ab in ES2 screening buffer and incubate for 15 minutes. • 3. […] Cover the assay plate to protect the reagents from light and evaporation, and incubate at room temperature for 4 hours. • 5. Excite at 337 nm and measure the fluorescent emission signal of each well at 490 nm and 520 nm using the BMG PheraSTAR.
TR-FRET dose response data obtained with each compound was exported into a suitable software package (such as Origin or Genedata) to perform curve fitting analysis. Competitive ER alpha binding was expressed as an IC50 value.

[2] = molecular target: Estrogen Receptor (ERα) in MCF-7 cells (Homo sapiens (Human), UniProt P03372); assay: MCF-7 ER down-regulation assay (immuno-fluorescence); type: cell-based
[3] = Thermodynamic solubility (shake-flask); type: physicochemical; details: aqueous phosphate buffer, 25 °C, pH 7.4, aqueous buffer, thermodynamic from solid, phosphate buffer pH 7.4, 24 hours

Chain of recombinant human Estrogen Receptor alpha ligand binding domain (ER alpha-LBD (GST)) (P03372 307-554): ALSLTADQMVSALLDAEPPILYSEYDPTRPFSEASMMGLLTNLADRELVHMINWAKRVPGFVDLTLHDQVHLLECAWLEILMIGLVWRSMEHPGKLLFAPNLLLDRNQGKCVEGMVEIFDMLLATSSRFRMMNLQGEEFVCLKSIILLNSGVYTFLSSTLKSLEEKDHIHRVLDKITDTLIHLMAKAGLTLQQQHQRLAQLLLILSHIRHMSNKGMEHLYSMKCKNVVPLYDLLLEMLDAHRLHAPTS
Chain of Estrogen Receptor (ERα) in MCF-7 cells (P03372 whole entry): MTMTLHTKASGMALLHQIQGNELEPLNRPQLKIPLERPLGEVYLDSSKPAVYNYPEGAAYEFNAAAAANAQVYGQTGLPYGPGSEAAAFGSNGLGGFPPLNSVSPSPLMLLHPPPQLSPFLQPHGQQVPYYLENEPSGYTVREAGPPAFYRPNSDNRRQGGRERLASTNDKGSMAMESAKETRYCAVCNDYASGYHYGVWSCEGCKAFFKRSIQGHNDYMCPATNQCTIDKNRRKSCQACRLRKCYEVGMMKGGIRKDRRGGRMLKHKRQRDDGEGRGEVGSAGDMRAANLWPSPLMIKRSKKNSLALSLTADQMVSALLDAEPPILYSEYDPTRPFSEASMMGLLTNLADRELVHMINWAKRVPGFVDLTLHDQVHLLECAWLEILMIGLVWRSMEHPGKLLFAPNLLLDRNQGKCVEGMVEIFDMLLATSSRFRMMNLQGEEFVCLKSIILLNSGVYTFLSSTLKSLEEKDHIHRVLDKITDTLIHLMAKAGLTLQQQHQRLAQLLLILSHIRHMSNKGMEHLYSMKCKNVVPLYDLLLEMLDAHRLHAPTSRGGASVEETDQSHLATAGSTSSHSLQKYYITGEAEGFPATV

Compound | IC50 [1] | IC50 [2] | solubility at 24 h [3] | % downregulation (in brackets) ([2]; maximum downregulation)
Cc1c(OCCN(C)CCCF)ncc(F)c1[C@@H]1c2[nH]c3ccccc3c2C[C@@H](C)N1CCC(=O)O [Example 157, 3-((1R,3R)-1-(5-fluoro-2-(2-((3-fluoropropyl)(methyl)amino)ethoxy)-3-methylpyridin-4-yl)-3-methyl-1,3,4,9-tetrahydro-2H-pyrido[3,4-b]indol-2-yl)propanoic acid] | 1.8 nM | 1 nM | – | –
C[C@@H]1Cc2c([nH]c3ccccc23)[C@@H](c2cccc(N(C)CCNCCCF)c2)N1CC1(F)COC1 [Example 3, N-1-(3-((1R,3R)-2-((3-fluorooxetan-3-yl)methyl)-3-methyl-2,3,4,9-tetrahydro-1H-pyrido[3,4-b]indol-1-yl)phenyl)-N-2-(3-fluoropropyl)-N-1-methylethane-1,2-diamine] | – | – | 712 µM (≈ 344 µg/mL) | –
Cc1c(OCCN(C)CCCF)ccc(F)c1[C@@H]1c2[nH]c3ccc(F)cc3c2C[C@@H](C)N1C[C@H](C)C(=O)O [Example 146, (S)-3-((1R,3R)-6-fluoro-1-(6-fluoro-3-(2-((3-fluoropropyl)(methyl)amino)ethoxy)-2-methylphenyl)-3-methyl-1,3,4,9-tetrahydro-2H-pyrido[3,4-b]indol-2-yl)-2-methylpropanoic acid] | 1.1 nM | 0.4 nM | – | –
C[C@@H]1Cc2c([nH]c3ccccc23)[C@@H](c2ccc(F)c(OCCNCCCF)c2)N1CC(F)(F)F [Example 74, 3-fluoro-N-(2-(2-fluoro-5-((1R,3R)-3-methyl-2-(2,2,2-trifluoroethyl)-2,3,4,9-tetrahydro-1H-pyrido[3,4-b]indol-1-yl)phenoxy)ethyl)propan-1-amine] | – | – | 0.9 µM (≈ 0.433 µg/mL) | –
C[C@@H]1Cc2c([nH]c3ccc(F)cc23)[C@@H](c2c(F)ccc(OCCNCCCF)c2F)N1C[C@H](C)C(=O)O [Example 59, (S)-3-((1R,3R)-1-(2,6-difluoro-3-(2-((3-fluoropropyl)amino)ethoxy)phenyl)-6-fluoro-3-methyl-1,3,4,9-tetrahydro-2H-pyrido[3,4-b]indol-2-yl)-2-methylpropanoic acid] | 2.3 nM | 3.1 nM | – | –
COc1ccc(OCCNCCCF)cc1[C@@H]1c2[nH]c3ccccc3c2C[C@@H](C)N1CC1(F)CC1 [Example 52, 3-fluoro-N-(2-(3-((1R,3R)-2-((1-fluorocyclopropyl)methyl)-3-methyl-2,3,4,9-tetrahydro-1H-pyrido[3,4-b]indol-1-yl)-4-methoxyphenoxy)ethyl)propan-1-amine] | 0.58 nM | 0.34 nM | – | –
C[C@@H](CN1[C@H](c2c(F)cnc(OCCNCCCF)c2Cl)c2[nH]c3ccccc3c2C[C@H]1C(F)F)C(=O)O [Example 139, (S)-3-((1R,3S)-1-(3-chloro-5-fluoro-2-(2-((3-fluoropropyl)amino)ethoxy)pyridin-4-yl)-3-(difluoromethyl)-1,3,4,9-tetrahydro-2H-pyrido[3,4-b]indol-2-yl)-2-methylpropanoic acid] | 1.5 nM | 0.9 nM | – | –
C[C@@H]1Cc2c([nH]c3ccccc23)[C@@H](c2c(F)ccc(OCCN(C)CCCF)c2F)N1C[C@H](C)C(=O)O [Example 144, (S)-3-((1R,3R)-1-(2,6-difluoro-3-(2-((3-fluoropropyl)(methyl)amino)ethoxy)phenyl)-3-methyl-1,3,4,9-tetrahydro-2H-pyrido[3,4-b]indol-2-yl)-2-methylpropanoic acid] | 5.6 nM | 7.9 nM | – | 88%
Cc1c(OCCNCCCF)ccc(F)c1[C@@H]1c2[nH]c3ccccc3c2C[C@@H](C)N1CCC(=O)O [Example 116, 3-((1R,3R)-1-(6-fluoro-3-(2-((3-fluoropropyl)amino)ethoxy)-2-methylphenyl)-3-methyl-1,3,4,9-tetrahydro-2H-pyrido[3,4-b]indol-2-yl)propanoic acid] | – | – | > 1000 µM | –
Cc1cc(OCCNCCCF)cc([C@@H]2c3[nH]c4ccccc4c3C[C@@H](C)N2CC(F)(F)F)c1 [Example 18, 3-fluoro-N-(2-(3-methyl-5-((1R,3R)-3-methyl-2-(2,2,2-trifluoroethyl)-2,3,4,9-tetrahydro-1H-pyrido[3,4-b]indol-1-yl)phenoxy)ethyl)propan-1-amine] | – | – | 27 µM (≈ 12.9 µg/mL) | –
C[C@@H]1Cc2c([nH]c3ccccc23)[C@@H](c2cccc(OCCNCCCF)c2F)N1CC(F)(F)F [Example 24, 3-fluoro-N-(2-(2-fluoro-3-((1R,3R)-3-methyl-2-(2,2,2-trifluoroethyl)-2,3,4,9-tetrahydro-1H-pyrido[3,4-b]indol-1-yl)phenoxy)ethyl)propan-1-amine] | – | – | 88 µM (≈ 42.4 µg/mL) | –
CC[C@@H]1Cc2c([nH]c3ccccc23)[C@@H](c2c(F)ccc(OCCNCCCF)c2C)N1C[C@H](C)C(=O)O [Example 122, (S)-3-((1R,3R)-3-ethyl-1-(6-fluoro-3-(2-((3-fluoropropyl)amino)ethoxy)-2-methylphenyl)-1,3,4,9-tetrahydro-2H-pyrido[3,4-b]indol-2-yl)-2-methylpropanoic acid] | 4.9 nM | 0.39 nM | – | –
Cc1c(OCCNCCCF)ccc(F)c1[C@@H]1c2[nH]c3ccccc3c2C[C@@H](C)N1CC(F)(F)F [Example 33, 3-fluoro-N-(2-(4-fluoro-2-methyl-3-((1R,3R)-3-methyl-2-(2,2,2-trifluoroethyl)-2,3,4,9-tetrahydro-1H-pyrido[3,4-b]indol-1-yl)phenoxy)ethyl)propan-1-amine] | – | – | 8 µM (≈ 3.96 µg/mL) | –
Cc1c(OCCNCCCF)ccc(F)c1[C@@H]1c2[nH]c3ccccc3c2C[C@@H](C)N1CC(F)(F)CO [Example 45, 2,2-difluoro-3-((1R,3R)-1-(6-fluoro-3-(2-((3-fluoropropyl)amino)ethoxy)-2-methylphenyl)-3-methyl-1,3,4,9-tetrahydro-2H-pyrido[3,4-b]indol-2-yl)propan-1-ol] | – | – | 227 µM (≈ 115 µg/mL) | –
C[C@@H]1Cc2c([nH]c3ccccc23)[C@@H](c2cccc(NCCNCCCF)c2)N1CC1(F)COC1 [Example 2, N-1-(3-((1R,3R)-2-((3-fluorooxetan-3-yl)methyl)-3-methyl-2,3,4,9-tetrahydro-1H-pyrido[3,4-b]indol-1-yl)phenyl)-N-2-(3-fluoropropyl)ethane-1,2-diamine] | – | – | 895 µM (≈ 419 µg/mL) | –
Cc1ccc(OCCNCCCF)cc1[C@@H]1c2[nH]c3ccccc3c2C[C@@H](C)N1CC(F)(F)F [Example 17, 3-fluoro-N-(2-(4-methyl-3-((1R,3R)-3-methyl-2-(2,2,2-trifluoroethyl)-2,3,4,9-tetrahydro-1H-pyrido[3,4-b]indol-1-yl)phenoxy)ethyl)propan-1-amine] | – | – | 68 µM (≈ 32.5 µg/mL) | –
C[C@@H]1Cc2c([nH]c3ccccc23)[C@@H](c2c(F)cnc(OCCNCCCF)c2Cl)N1C[C@H](C)C(=O)O [Example 133, (S)-3-((1R,3R)-1-(3-chloro-5-fluoro-2-(2-((3-fluoropropyl)amino)ethoxy)pyridin-4-yl)-3-methyl-1,3,4,9-tetrahydro-2H-pyrido[3,4-b]indol-2-yl)-2-methylpropanoic acid] | 1.5 nM | 1.5 nM | – | –
Cc1c(OCCN(C)CCCF)ccc(F)c1[C@@H]1c2[nH]c3ccc(F)cc3c2C[C@@H](C)N1C[C@@H](C)C(=O)O [Example 160, (R)-3-((1R,3R)-6-fluoro-1-(6-fluoro-3-(2-((3-fluoropropyl)(methyl)amino)ethoxy)-2-methylphenyl)-3-methyl-1,3,4,9-tetrahydro-2H-pyrido[3,4-b]indol-2-yl)-2-methylpropanoic acid] | 1.9 nM | 0.36 nM | – | –
Cc1ccc(OCCNCCCF)c(F)c1[C@@H]1c2[nH]c3ccccc3c2C[C@@H](C)N1CC(F)(F)F [Example 80, 3-fluoro-N-(2-(2-fluoro-4-methyl-3-((1R,3R)-3-methyl-2-(2,2,2-trifluoroethyl)-2,3,4,9-tetrahydro-1H-pyrido[3,4-b]indol-1-yl)phenoxy)ethyl)propan-1-amine] | – | – | 13 µM (≈ 6.44 µg/mL) | –
C[C@@H]1Cc2c([nH]c3ccccc23)[C@@H](c2c(F)ccc(OCCNCCCF)c2C(F)F)N1C[C@H](C)C(=O)O [Example 125, (S)-3-((1R,3R)-1-(2-(difluoromethyl)-6-fluoro-3-(2-((3-fluoropropyl)amino)ethoxy)phenyl)-3-methyl-1,3,4,9-tetrahydro-2H-pyrido[3,4-b]indol-2-yl)-2-methylpropanoic acid] | 1.3 nM | 0.62 nM | – | –
C[C@@H](CN1[C@H](c2c(F)ccc(OCCNCCCF)c2Cl)c2[nH]c3ccccc3c2C[C@H]1C(F)F)C(=O)O [Example 138, (S)-3-((1R,3S)-1-(2-chloro-6-fluoro-3-(2-((3-fluoropropyl)amino)ethoxy)phenyl)-3-(difluoromethyl)-1,3,4,9-tetrahydro-2H-pyrido[3,4-b]indol-2-yl)-2-methylpropanoic acid] | 1.6 nM | 1.6 nM | – | –
Cc1c(OCCN(C)CCCF)ncc(F)c1[C@@H]1c2[nH]c3ccc(F)cc3c2C[C@@H](C)N1C[C@@H](C)C(=O)O [Example 155, (2R)-3-[(1R,3R)-6-fluoro-1-[5-fluoro-2-[2-[3-fluoropropyl(methyl)amino]ethoxy]-3-methyl-4-pyridyl]-3-methyl-1,3,4,9-tetrahydropyrido[3,4-b]indol-2-yl]-2-methyl-propanoic acid] | 1 nM | 0.21 nM | – | –
Cc1c(OCCN(C)CCCF)ncc(F)c1[C@@H]1c2[nH]c3ccc(F)cc3c2C[C@@H](C)N1CCC(=O)O [Example 156, 3-((1R,3R)-6-fluoro-1-(5-fluoro-2-(2-((3-fluoropropyl)(methyl)amino)ethoxy)-3-methylpyridin-4-yl)-3-methyl-1,3,4,9-tetrahydro-2H-pyrido[3,4-b]indol-2-yl)propanoic acid] | 1.2 nM | 1.4 nM | – | –
Cc1c(OCCNCCCF)ccc(F)c1[C@@H]1c2[nH]c3ccccc3c2C[C@@H](C)N1CC1(C(=O)O)CCC1 [Example 120] | 11 nM | 2.5 nM | – | –
Cc1c(OCCNCCCF)ccc(F)c1[C@@H]1c2[nH]c3ccccc3c2C[C@@H](C)N1CC(C)(C)C(=O)O [Example 119, 3-((1R,3R)-1-(6-fluoro-3-(2-((3-fluoropropyl)amino)ethoxy)-2-methylphenyl)-3-methyl-1,3,4,9-tetrahydro-2H-pyrido[3,4-b]indol-2-yl)-2,2-dimethyl-propanoic acid] | 6.9 nM | 1 nM | – | –
